From patent US20060111305A1, “Metabolites of certain [1,4]diazepino[6,7,1-ij]quinoline derivatives and methods of preparation and use thereof” (Wyeth, priority 2004, published 2006)
Where “and” joins values, the source holds several entries; their conditions need not be identical. Equal entries are not always repeated. One block for each compound: values may come before it.

Assays:
[1] = M6 to DCDQ ratios in human urine, LC/MS (Table 35); format: in vivo, healthy human subjects
Description: Drug administration and specimen collection were performed in a randomized, double-blinded, placebo-controlled, ascending single dose study of the safety, tolerability, pharmacokinetics, and pharmacodynamics of DCDQ administered orally to healthy subjects and subjects with schizophrenia and schizoaffective disorder. The specimens were stored at approximately −70° C. until analysis for metabolite profiles and for ratios of carbamoyl glucuronide (M6) to DCDQ.
The 0-4, 4-12 and 12-24 hr urine samples from the same subjects in the single dose groups were analyzed for ratios of M6 to DCDQ. The internal standard was not used in the analysis of urine samples. The samples were diluted for 20-fold with a control urine sample and directly analyzed by LC/MS. To estimate M6-to-DCDQ ratios in human urine, control urine samples were spiked with 200 ng/mL of DCDQ and 1000, 5000, or 10000 ng/mL of DCDQ carbamoyl glucuronide, and were analyzed by LC/MS.
LC/MS System 3 was used for semi-quantitative analysis of metabolite M6 (DCDQ carbamoyl glucuronide) in plasma and urine samples. The HPLC equipment for this LC/MS System consisted of a Thermo Surveyor HPLC (Thermo Electron Corp., San Jose, Calif.), including a Surveyor MS pump and autosampler. Separations were accomplished on a 5 micron Phenomenex Luna C18(2) column, 150×2 mm (Phenomenex, Torrance, Calif.). The autosampler and column temperatures were set at 5° C. and 40° C., respectively. The HPLC mobile phase consisted of 10 mM ammonium acetate (A) and methanol (B), and was delivered at 0.2 mL/min. The linear mobile phase gradient (HPLC Gradient 2) is shown below. During LC/MS sample analysis, up to 3 min of the initial flow was diverted away from the mass spectrometer prior to evaluation of metabolites.
The mass spectrometer used for semi-quantitative anslysis with LC/MS System 3 was a Finnigan TSQ Quantum triple quadrupole mass spectrometer (Thermo Electron Corp.). The mass spectrometer was equipped with an electrospray interface and operated in the positive ionization mode. Settings for this mass spectrometer are listed below.
LC/MS/MS analysis in the selected reaction monitoring (SRM) mode (LC/SRM) was conducted for DCDQ and M6 using the following settings.

[2] = Rat fecal excretion and metabolite profiles after single oral 5 mg/kg [14C]DCDQ; format: in vivo, Sprague-Dawley rats; conditions: male rats
Description: (§1) At sacrifice, blood samples were collected by cardiac puncture into tubes containing EDTA as the anticoagulant and placing them on ice. Aliquots of 50 μL were removed for combustion and determination of radioactivity content. Plasma was immediately obtained from the remaining blood by centrifugation at 4° C. Brains were excised after perfusion with 50 mL of chilled sterile saline. Urine samples were collected on dry ice at intervals of 0-8 and 8-24 hour post-dosing. Feces were collected at intervals of 0-8 and 8-24 hr post-dosing at room temperature and were homogenized as described previously. The biological specimens and aliquots of the dosing solution at pre- and post-dose were stored at approximately −70° C. until analyzed.
(§2) Brain and fecal samples were weighed and homogenized in water at volume-to-weight ratios of about 1:1 and 5:1, respectively. Blood aliquots (50 μL), brain homogenates (0.1 gram) and fecal homogenates (0.2 gram) were placed on Combusto-cones with Combusto-pads and combusted. A model 307 Tri-Carb Sample Oxidizer, equipped with an Oximate-80 Robotic Automatic Sampler (Perkin Elmer), was used for combustion. The liberated ^14CO2 was trapped with Carbo-Sorb E carbon dioxide absorber, mixed with PermaFluor® E+ liquid scintillation cocktail, and counted in a Tri-Carb Model 3100 TR/LL liquid scintillation counter (Perkin Elmer). The oxidation efficiency of the oxidizer was 98.2%.
Fecal homogenates were analyzed for metabolite profiles. Aliquots of 1 gram of fecal homogenates were mixed with 2 mL methanol, placed on ice for about 10 minutes and centrifuged. The supernatant was transferred to a clean tube. The residue was extracted three times with 2 mL of a water:methanol (3:7) mixture. The supernatants of each sample were combined, evaporated to about 1 mL, and centrifuged. Extraction efficiency was determined by analyzing aliquots of 10 μL of the supernatant for radioactivity. An aliquot (50-200 μL) of the supernatant was analyzed by HPLC with radioactivity flow detection for profiling. Samples were also analyzed by LC/MS to characterize the radioactive peaks.
A Waters model 2690 HPLC system (Waters Corp., Milford, Mass.) with a built-in autosampler was used for analysis. Separations were accomplished on a Phenomenex Luna C18(2) column (150×2.0 mm, 5 μm) (Phenomenex, Torrance, Calif.). The sample chamber of the autosampler was maintained at 4° C., while the column was at ambient temperature of about 20° C. A variable wavelength UV detector set to monitor 250 nm and a Flo-One β Model A525 radioactivity detector described above were used for data acquisition. The HPLC mobile phase consisted of 10 mM ammonium acetate, pH 4.5 (A) and methanol (B), and was delivered at 0.2 mL/min. […]

[3] = Rat brain radioactivity content and metabolite profiles after single oral 5 mg/kg [14C]DCDQ; format: in vivo, Sprague-Dawley rats; conditions: for Brain concentration of radioactivity, Total: mean ± S.D., N = 3
Description: as §1, §2
Brain homogenates were analyzed for metabolite profiles. Aliquots of 1 gram of brain homogenates were mixed with an equal volume of methanol, placed on ice for about 10 minutes and centrifuged. The supernatant was transferred to a clean tube. The residue was extracted three times with 1 mL methanol. The supernatants of each sample were combined, evaporated to about 0.5 mL, and centrifuged. Extraction efficiency was determined by analyzing aliquots of 10 μL of the supernatant for radioactivity. An aliquot (100-200 μL) of the supernatant was analyzed by HPLC with radioactivity flow detection for profiling. Samples were also analyzed by LC/MS to characterize the radioactive peaks.
A Waters model 2690 HPLC system (Waters Corp., Milford, Mass.) with a built-in autosampler was used for analysis. Separations were accomplished on a Phenomenex Luna C18(2) column (150×2.0 mm, 5 μm) (Phenomenex, Torrance, Calif.). The sample chamber of the autosampler was maintained at 4° C., while the column was at ambient temperature of about 20° C. A variable wavelength UV detector set to monitor 250 nm and a Flo-One β Model A525 radioactivity detector described above were used for data acquisition. The HPLC mobile phase consisted of 10 mM ammonium acetate, pH 4.5 (A) and methanol (B), and was delivered at 0.2 mL/min. Chromatographic condition A was used for dose analysis, while condition B was used for analysis of urine and plasma, brain and fecal extracts.

M6 to DCDQ Ratios ([1]; 50 mg (fasted), 0-4 hr, Mean ± S.D.): 841 ± 798
M6 to DCDQ Ratios ([1]; 50 mg (fasted), 0-4 hr, individual subjects): 214 and 571 and 1739
M6 to DCDQ Ratios ([1]; 50 mg (fasted), 4-12 hr, Mean ± S.D.): 419 ± 174
M6 to DCDQ Ratios ([1]; 50 mg (fasted), 4-12 hr, individual subjects): 389 and 606 and 261
M6 to DCDQ Ratios ([1]; 50 mg (fasted), 12-24 hr, Mean): 155 ± 98.1
M6 to DCDQ Ratios ([1]; 50 mg (fasted), 12-24 hr, individual subjects): 143 and 259 and 63.9
M6 to DCDQ Ratios ([1]; 200 mg (fasted), 0-4 hr, Mean ± S.D.): 151 ± 32.9
M6 to DCDQ Ratios ([1]; 200 mg (fasted), 0-4 hr, individual subjects): 169 and 171 and 113
M6 to DCDQ Ratios ([1]; 200 mg (fasted), 4-12 hr, Mean ± S.D.): 284 ± 98.7
M6 to DCDQ Ratios ([1]; 200 mg (fasted), 4-12 hr, individual subjects): 397 and 240 and 215
M6 to DCDQ Ratios ([1]; 200 mg (fasted), 12-24 hr, Mean ± S.D.): 115 ± 90.4
M6 to DCDQ Ratios ([1]; 200 mg (fasted), 12-24 hr, individual subjects): 216 and 85.9 and 42.3
M6 to DCDQ Ratios ([1]; 300 mg (fasted), 0-4 hr, Mean ± S.D.): 820 ± 365
M6 to DCDQ Ratios ([1]; 300 mg (fasted), 0-4 hr, individual subjects): 1167 and 852 and 440
M6 to DCDQ Ratios ([1]; 300 mg (fasted), 4-12 hr, Mean ± S.D.): 732 ± 702
M6 to DCDQ Ratios ([1]; 300 mg (fasted), 4-12 hr, individual subjects): 329 and 1543 and 324
M6 to DCDQ Ratios ([1]; 300 mg (fasted), 12-24 hr, Mean ± S.D.): 241 ± 212
M6 to DCDQ Ratios ([1]; 300 mg (fasted), 12-24 hr, individual subjects): 485 and 127 and 110
M6 to DCDQ Ratios ([1]; 300 mg (fed), 0-4 hr, Mean ± S.D.): 1018 ± 520
M6 to DCDQ Ratios ([1]; 300 mg (fed), 0-4 hr, individual subjects): 1162 and 441 and 1451
M6 to DCDQ Ratios ([1]; 300 mg (fed), 4-12 hr, Mean ± S.D.): 761 ± 508
M6 to DCDQ Ratios ([1]; 300 mg (fed), 4-12 hr, individual subjects): 375 and 571 and 1337
M6 to DCDQ Ratios ([1]; 300 mg (fed), 12-24 hr, Mean ± S.D.): 142 ± 46.0
M6 to DCDQ Ratios ([1]; 300 mg (fed), 12-24 hr, individual subjects): 148 and 92.6 and 184
M6 to DCDQ Ratios ([1]; 500 mg (fasted), 0-4 hr, Mean ± S.D.): 97.6 ± 55.2
M6 to DCDQ Ratios ([1]; 500 mg (fasted), 0-4 hr, individual subjects): 71.5 and 60.2 and 161
M6 to DCDQ Ratios ([1]; 500 mg (fasted), 4-12 hr, Mean ± S.D.): 84.3 ± 58.6
M6 to DCDQ Ratios ([1]; 500 mg (fasted), 4-12 hr, individual subjects): 149 and 34.6 and 69.4
M6 to DCDQ Ratios ([1]; 500 mg (fasted), 12-24 hr, Mean ± S.D.): 176 ± 128
M6 to DCDQ Ratios ([1]; 500 mg (fasted), 12-24 hr, individual subjects): 288 and 36.0 and 203
Compound: O=C(O)[C@H]1O[C@@H](OC(=O)N2CCN3C[C@@H]4CCC[C@@H]4c4cccc(c43)C2)[C@H](O)[C@@H](O)[C@@H]1O [Metabolite M6, carbamoyl glucuronide of DCDQ]

Compound: c1cc2c3c(c1)[C@H]1CCC[C@H]1CN3CCNC2 [[^14C]DCDQ]
dosed radioactivity in feces ([2]; 0-8 hour fecal samples): less than 0.1%
dosed radioactivity recovered in feces ([2]; first 24 hours post-dosing): 21.1±2.1%
Brain concentration of radioactivity, Total ([3]; female rats, 2 hr): 6.38 ± 2.22 μg equivalents/g
Brain concentration of radioactivity, Total ([3]; female rats, 8 hr): 2.85 ± 0.68 μg equivalents/g
Brain concentration of radioactivity, Total ([3]; male rats, 2 hr): 5.12 ± 1.28 μg equivalents/g
Brain concentration of radioactivity, Total ([3]; male rats, 4 hr): 4.94 ± 0.44 μg equivalents/g
Brain concentration of radioactivity, Total ([3]; male rats, 8 hr): 3.25 ± 0.99 μg equivalents/g
Brain radioactivity concentration ([3]; male rats, 24 hour post-dose): 0.037 ± 0.002 µg equivalents/g tissue
Brain concentration of radioactivity, Total ([3]; male rats, 24 hr): 0.04 ± 0.00 μg equivalents/g
